Assay results as given in the supplement of paper PMC10307832.

What was measured:
Experiment in all cases: relative viability (nuclei count vs DMSO), 5 days (fraction); higher = more cells survive
A-427 = tested on: A-427
Summary of the method: (§1)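 For relative viability, nuclei counts in treated wells were divided by those in vehicle wells. Lung cancer cell lines had been pin-tool dosed in 1536-well plates the day after seeding and cultured for 5 days, then fixed and stained in one step (final 0.05% Triton X-100, 1% formaldehyde, 1 ug/ml Hoechst) and imaged at 4×. Doses were one drug alone or a fixed anchor-drug dose plus five library-drug doses (not always all listed) in √10 steps, and values are duplicate-plate medians.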

CAL-12T = tested on: CAL-12T
Summary of the method: as §1

COR-L 105 = tested on: COR-L 105
Summary of the method: as §1

COR-L23 = tested on: COR-L23
Summary of the method: as §1

EPLC-272H = tested on: EPLC-272H
Summary of the method: as §1

HOP-62 = tested on: HOP-62
Summary of the method: as §1

LCLC-103H = tested on: LCLC-103H
Summary of the method: as §1

LXF-289 = tested on: LXF-289
Summary of the method: as §1

NCI-H1395 = tested on: NCI-H1395
Summary of the method: as §1

NCI-H1651 = tested on: NCI-H1651
Summary of the method: as §1

NCI-H1975 = tested on: NCI-H1975
Summary of the method: as §1

NCI-H1993 = tested on: NCI-H1993
Summary of the method: as §1

NCI-H2023 = tested on: NCI-H2023
Summary of the method: as §1

NCI-H2085 = tested on: NCI-H2085
Summary of the method: as §1

NCI-H2087 = tested on: NCI-H2087
Summary of the method: as §1

NCI-H2170 = tested on: NCI-H2170
Summary of the method: as §1

NCI-H3122 = tested on: NCI-H3122
Summary of the method: as §1

NCI-H596 = tested on: NCI-H596
Summary of the method: as §1

NCI-H647 = tested on: NCI-H647
Summary of the method: as §1

NCI-H650 = tested on: NCI-H650
Summary of the method: as §1

PC-14 = tested on: PC-14
Summary of the method: as §1

RERF-LC-KJ = tested on: RERF-LC-KJ
Summary of the method: as §1

SK-MES-1 = tested on: SK-MES-1
Summary of the method: as §1

Compound: O=c1[nH]c2ccccc2n1C1CCN(CCCC(c2ccc(F)cc2)c2ccc(F)cc2)CC1 [Pimozide] + CCNC(=O)c1noc(-c2cc(C(C)C)c(O)cc2O)c1-c1ccc(CN2CCOCC2)cc1 [Luminespib] (partner 0.01 µM)
- relative viability (A-427; first compound 0.08 µM): 0.703
- relative viability (A-427; first compound 0.253 µM): 0.793
- relative viability (A-427; first compound 0.8 µM): 0.936
- relative viability (A-427; first compound 2.53 µM): 0.857
- relative viability (A-427; first compound 8 µM): 0.768
- relative viability (CAL-12T; first compound 0.08 µM): 0.305
- relative viability (CAL-12T; first compound 0.253 µM): 0.408
- relative viability (CAL-12T; first compound 0.8 µM): 0.186
- relative viability (CAL-12T; first compound 2.53 µM): 0.514
- relative viability (CAL-12T; first compound 8 µM): 0.168
- relative viability (COR-L 105; first compound 0.253 µM): 0.885
- relative viability (COR-L 105; first compound 0.8 µM): 0.631
- relative viability (COR-L 105; first compound 2.53 µM): 0.879
- relative viability (COR-L 105; first compound 8 µM): 0.687
- relative viability (COR-L23; first compound 0.08 µM): 0.603
- relative viability (COR-L23; first compound 0.253 µM): 0.628
- relative viability (COR-L23; first compound 0.8 µM): 0.594
- relative viability (COR-L23; first compound 2.53 µM): 0.61
- relative viability (COR-L23; first compound 8 µM): 0.707
- relative viability (EPLC-272H; first compound 0.08 µM): 0.622
- relative viability (EPLC-272H; first compound 0.253 µM): 0.557
- relative viability (EPLC-272H; first compound 0.8 µM): 0.185
- relative viability (EPLC-272H; first compound 2.53 µM): 0.244
- relative viability (EPLC-272H; first compound 8 µM): 0.206
- relative viability (HOP-62; first compound 0.08 µM): 0.995
- relative viability (HOP-62; first compound 0.253 µM): 0.875
- relative viability (HOP-62; first compound 0.8 µM): 0.709
- relative viability (HOP-62; first compound 2.53 µM): 0.904
- relative viability (HOP-62; first compound 8 µM): 0.873
- relative viability (LCLC-103H; first compound 0.08 µM): 0.942
- relative viability (LCLC-103H; first compound 0.253 µM): 1.01
- relative viability (LCLC-103H; first compound 0.8 µM): 0.762
- relative viability (LCLC-103H; first compound 2.53 µM): 0.899
- relative viability (LCLC-103H; first compound 8 µM): 0.948
- relative viability (LXF-289; first compound 0.08 µM): 0.642
- relative viability (LXF-289; first compound 0.253 µM): 0.634
- relative viability (LXF-289; first compound 0.8 µM): 0.702
- relative viability (LXF-289; first compound 2.53 µM): 0.664
- relative viability (LXF-289; first compound 8 µM): 0.632
- relative viability (NCI-H1395; first compound 0.08 µM): 0.846
- relative viability (NCI-H1395; first compound 0.253 µM): 0.595
- relative viability (NCI-H1395; first compound 0.8 µM): 0.704
- relative viability (NCI-H1395; first compound 2.53 µM): 0.927
- relative viability (NCI-H1395; first compound 8 µM): 0.683
- relative viability (NCI-H1651; first compound 0.08 µM): 0.91
- relative viability (NCI-H1651; first compound 0.253 µM): 0.756
- relative viability (NCI-H1651; first compound 0.8 µM): 0.696
- relative viability (NCI-H1651; first compound 2.53 µM): 0.867
- relative viability (NCI-H1651; first compound 8 µM): 0.807
- relative viability (NCI-H1975; first compound 0.08 µM): 0.213
- relative viability (NCI-H1975; first compound 0.253 µM): 0.337
- relative viability (NCI-H1975; first compound 0.8 µM): 0.384
- relative viability (NCI-H1975; first compound 2.53 µM): 0.239
- relative viability (NCI-H1975; first compound 8 µM): 0.18
- relative viability (NCI-H1993; first compound 0.08 µM): 0.729
- relative viability (NCI-H1993; first compound 0.253 µM): 0.809
- relative viability (NCI-H1993; first compound 0.8 µM): 0.77
- relative viability (NCI-H1993; first compound 2.53 µM): 0.79
- relative viability (NCI-H1993; first compound 8 µM): 0.425
- relative viability (NCI-H2023; first compound 0.08 µM): 0.755
- relative viability (NCI-H2023; first compound 0.253 µM): 0.707
- relative viability (NCI-H2023; first compound 0.8 µM): 0.709
- relative viability (NCI-H2023; first compound 2.53 µM): 0.507
- relative viability (NCI-H2023; first compound 8 µM): 0.596
- relative viability (NCI-H2085; first compound 0.08 µM): 0.515
- relative viability (NCI-H2085; first compound 0.253 µM): 0.485
- relative viability (NCI-H2085; first compound 0.8 µM): 0.4
- relative viability (NCI-H2085; first compound 2.53 µM): 0.496
- relative viability (NCI-H2085; first compound 8 µM): 0.322
- relative viability (NCI-H2087; first compound 0.08 µM): 0.192
- relative viability (NCI-H2087; first compound 0.253 µM): 0.205
- relative viability (NCI-H2087; first compound 2.53 µM): 0.171
- relative viability (NCI-H2087; first compound 8 µM): 0.228
- relative viability (NCI-H2170; first compound 0.08 µM): 0.527
- relative viability (NCI-H2170; first compound 0.253 µM): 0.73
- relative viability (NCI-H2170; first compound 0.8 µM): 0.779
- relative viability (NCI-H2170; first compound 2.53 µM): 0.624
- relative viability (NCI-H2170; first compound 8 µM): 0.671
- relative viability (NCI-H3122; first compound 0.08 µM): 0.109
- relative viability (NCI-H3122; first compound 0.253 µM): 0.0961
- relative viability (NCI-H3122; first compound 0.8 µM): 0.105
- relative viability (NCI-H3122; first compound 2.53 µM): 0.0832
- relative viability (NCI-H3122; first compound 8 µM): 0.0656
- relative viability (NCI-H596; first compound 0.08 µM): 0.97
- relative viability (NCI-H596; first compound 0.253 µM): 1.11
- relative viability (NCI-H596; first compound 0.8 µM): 1.11
- relative viability (NCI-H596; first compound 2.53 µM): 0.776
- relative viability (NCI-H596; first compound 8 µM): 0.847
- relative viability (NCI-H647; first compound 0.08 µM): 0.095
- relative viability (NCI-H647; first compound 0.253 µM): 0.0882
- relative viability (NCI-H647; first compound 0.8 µM): 0.196
- relative viability (NCI-H647; first compound 2.53 µM): 0.096
- relative viability (NCI-H647; first compound 8 µM): 0.109
- relative viability (NCI-H650; first compound 0.08 µM): 0.765
- relative viability (NCI-H650; first compound 0.253 µM): 0.76
- relative viability (NCI-H650; first compound 0.8 µM): 0.838
- relative viability (NCI-H650; first compound 2.53 µM): 0.786
- relative viability (NCI-H650; first compound 8 µM): 0.765
- relative viability (PC-14; first compound 0.253 µM): 0.181
- relative viability (PC-14; first compound 2.53 µM): 0.15
- relative viability (PC-14; first compound 8 µM): 0.111
- relative viability (RERF-LC-KJ; first compound 0.08 µM): 1.09
- relative viability (RERF-LC-KJ; first compound 0.253 µM): 1.14
- relative viability (RERF-LC-KJ; first compound 0.8 µM): 1.08
- relative viability (RERF-LC-KJ; first compound 2.53 µM): 1.12
- relative viability (RERF-LC-KJ; first compound 8 µM): 0.964
- relative viability (SK-MES-1; first compound 0.08 µM): 0.859
- relative viability (SK-MES-1; first compound 0.253 µM): 0.766
- relative viability (SK-MES-1; first compound 0.8 µM): 0.702
- relative viability (SK-MES-1; first compound 2.53 µM): 0.815
- relative viability (SK-MES-1; first compound 8 µM): 0.596
